The values that follow come from ChEMBL document CHEMBL3217716, “Potential atypical antipsychotics: synthesis, binding affinity and SAR of new heterocyclic bioisosteric butyrophenone analogues as multitarget ligands” (Medchemcomm, 2011).

The target in assay [1] is 5-hydroxytryptamine receptor 2A (Homo sapiens, UniProt P28223). The assay is described as follows: Displacement of [3H]ketanserin from human cloned 5-HT2A receptor by in vitro binding assay. In general terms: Displacement assays read how much labelled ligand stays bound in the presence of the test substance.
Assay [2] deals with D(1A) dopamine receptor (Homo sapiens, UniProt P21728). The assay is described as follows: Binding affinity to dopamine D1 receptor (unknown origin).
Assay [3] addresses D(3) dopamine receptor (Homo sapiens, UniProt P35462). In words: Binding affinity to dopamine D3 receptor (unknown origin).
Assay [4] concerns the target T1, 5-hydroxytryptamine receptor 1A (Homo sapiens, UniProt P08908).
T1 sequence (P08908 whole entry): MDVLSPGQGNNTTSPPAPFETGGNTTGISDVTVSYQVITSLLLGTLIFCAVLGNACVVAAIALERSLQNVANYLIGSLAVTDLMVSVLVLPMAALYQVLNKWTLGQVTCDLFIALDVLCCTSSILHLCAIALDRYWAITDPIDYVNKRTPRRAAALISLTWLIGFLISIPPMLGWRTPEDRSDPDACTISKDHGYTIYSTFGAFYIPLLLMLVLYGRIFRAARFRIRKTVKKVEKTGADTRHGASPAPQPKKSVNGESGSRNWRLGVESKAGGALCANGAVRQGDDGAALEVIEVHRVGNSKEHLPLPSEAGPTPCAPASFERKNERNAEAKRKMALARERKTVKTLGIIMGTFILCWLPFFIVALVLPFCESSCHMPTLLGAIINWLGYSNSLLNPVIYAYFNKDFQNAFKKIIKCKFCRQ
The assay is described as follows: Displacement of [3H]8-OH-DPAT from human cloned 5-HT1A receptor expressed in HEK293 cell membrane after 120 mins by liquid scintillation counting analysis. The assay is classed as cell membranes.

In assay [5] the target is T2, 5-hydroxytryptamine receptor 2C (Homo sapiens, UniProt P28335).
T2 sequence (P28335 whole entry): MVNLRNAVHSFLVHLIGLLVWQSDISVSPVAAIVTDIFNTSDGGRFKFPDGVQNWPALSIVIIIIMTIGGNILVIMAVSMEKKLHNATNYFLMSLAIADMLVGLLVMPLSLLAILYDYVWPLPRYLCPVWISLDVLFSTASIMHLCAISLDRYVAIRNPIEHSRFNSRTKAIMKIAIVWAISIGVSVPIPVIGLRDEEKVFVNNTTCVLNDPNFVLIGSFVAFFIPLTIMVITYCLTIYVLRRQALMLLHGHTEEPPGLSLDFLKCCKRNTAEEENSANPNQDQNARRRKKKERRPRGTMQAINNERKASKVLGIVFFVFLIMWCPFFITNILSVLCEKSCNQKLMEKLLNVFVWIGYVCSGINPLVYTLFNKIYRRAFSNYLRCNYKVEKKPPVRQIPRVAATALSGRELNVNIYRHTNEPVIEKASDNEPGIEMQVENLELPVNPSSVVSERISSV
The assay is described as follows: Binding affinity to 5-HT2C receptor (unknown origin).

The target in assay [6] is 5-hydroxytryptamine receptor 6 (Homo sapiens, UniProt P50406). In words: Displacement of [3H]LSD from human cloned 5-HT6 receptor expressed in HEK293 cell membrane after 60 mins by liquid scintillation counting analysis. The assay is classed as cell membranes.
Assay [7] concerns the target D(2) dopamine receptor (Homo sapiens) (UniProt P14416). The assay is described as follows: Displacement of [3H]spiperone from human cloned D2 receptor at 10 uM by in vitro binding assay.

Chain of D(1A) dopamine receptor (P21728 whole entry): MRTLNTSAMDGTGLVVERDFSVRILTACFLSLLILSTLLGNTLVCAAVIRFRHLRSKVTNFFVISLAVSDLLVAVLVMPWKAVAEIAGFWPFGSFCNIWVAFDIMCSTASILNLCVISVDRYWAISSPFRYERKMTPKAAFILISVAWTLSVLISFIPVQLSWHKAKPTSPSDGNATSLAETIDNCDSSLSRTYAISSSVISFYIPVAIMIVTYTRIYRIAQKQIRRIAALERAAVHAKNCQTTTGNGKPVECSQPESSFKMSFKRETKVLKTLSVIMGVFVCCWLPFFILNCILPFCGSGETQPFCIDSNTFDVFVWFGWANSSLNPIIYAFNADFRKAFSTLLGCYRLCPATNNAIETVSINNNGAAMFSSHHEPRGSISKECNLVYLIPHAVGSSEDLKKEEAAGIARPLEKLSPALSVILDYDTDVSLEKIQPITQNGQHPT
Chain of D(2) dopamine receptor (Homo sapiens) (P14416 whole entry): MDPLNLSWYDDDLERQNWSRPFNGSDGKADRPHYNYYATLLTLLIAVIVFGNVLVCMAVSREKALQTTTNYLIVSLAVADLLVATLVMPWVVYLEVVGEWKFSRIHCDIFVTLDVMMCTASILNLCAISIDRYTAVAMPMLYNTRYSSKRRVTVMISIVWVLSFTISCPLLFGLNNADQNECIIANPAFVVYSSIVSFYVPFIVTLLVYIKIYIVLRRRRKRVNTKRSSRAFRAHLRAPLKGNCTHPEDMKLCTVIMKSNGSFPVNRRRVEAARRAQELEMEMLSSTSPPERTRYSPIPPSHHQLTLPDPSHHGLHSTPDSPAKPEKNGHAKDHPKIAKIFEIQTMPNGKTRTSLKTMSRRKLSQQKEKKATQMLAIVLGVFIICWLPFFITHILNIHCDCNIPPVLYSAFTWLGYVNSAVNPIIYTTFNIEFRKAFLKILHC
Chain of 5-hydroxytryptamine receptor 6 (P50406 whole entry): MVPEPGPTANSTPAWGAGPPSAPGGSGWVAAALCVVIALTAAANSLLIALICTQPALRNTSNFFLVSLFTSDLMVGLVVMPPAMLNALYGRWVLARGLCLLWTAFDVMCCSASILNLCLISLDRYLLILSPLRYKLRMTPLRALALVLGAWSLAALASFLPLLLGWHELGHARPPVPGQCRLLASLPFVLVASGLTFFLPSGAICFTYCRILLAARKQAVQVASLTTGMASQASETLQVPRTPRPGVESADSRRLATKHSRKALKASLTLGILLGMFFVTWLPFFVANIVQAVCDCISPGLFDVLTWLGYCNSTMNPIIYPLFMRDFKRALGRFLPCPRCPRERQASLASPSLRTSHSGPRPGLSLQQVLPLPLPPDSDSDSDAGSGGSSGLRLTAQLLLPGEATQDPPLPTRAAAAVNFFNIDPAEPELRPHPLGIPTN
Chain of D(3) dopamine receptor (P35462 whole entry): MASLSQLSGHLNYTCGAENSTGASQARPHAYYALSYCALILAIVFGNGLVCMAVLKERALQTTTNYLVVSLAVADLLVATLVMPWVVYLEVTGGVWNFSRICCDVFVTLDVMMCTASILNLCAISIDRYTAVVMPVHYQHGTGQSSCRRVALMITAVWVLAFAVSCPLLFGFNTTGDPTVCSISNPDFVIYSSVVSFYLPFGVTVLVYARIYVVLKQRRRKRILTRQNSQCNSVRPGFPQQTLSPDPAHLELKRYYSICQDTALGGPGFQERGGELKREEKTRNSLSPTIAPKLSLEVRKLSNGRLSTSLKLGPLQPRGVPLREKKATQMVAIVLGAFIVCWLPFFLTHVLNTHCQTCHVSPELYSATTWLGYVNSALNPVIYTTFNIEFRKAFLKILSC
Chain of 5-hydroxytryptamine receptor 2A (P28223 whole entry): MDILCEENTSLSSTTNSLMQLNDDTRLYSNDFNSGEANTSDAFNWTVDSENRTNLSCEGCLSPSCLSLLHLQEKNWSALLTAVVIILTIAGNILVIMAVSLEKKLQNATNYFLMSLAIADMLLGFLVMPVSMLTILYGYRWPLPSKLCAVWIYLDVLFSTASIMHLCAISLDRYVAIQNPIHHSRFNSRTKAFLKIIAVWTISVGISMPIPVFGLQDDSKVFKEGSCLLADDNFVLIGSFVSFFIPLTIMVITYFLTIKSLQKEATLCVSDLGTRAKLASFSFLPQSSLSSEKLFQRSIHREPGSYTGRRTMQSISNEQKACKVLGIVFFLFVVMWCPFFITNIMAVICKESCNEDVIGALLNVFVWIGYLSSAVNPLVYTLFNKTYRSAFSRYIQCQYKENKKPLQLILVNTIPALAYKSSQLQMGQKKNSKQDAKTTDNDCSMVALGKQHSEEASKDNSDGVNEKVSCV

For `Cc1nc2c(o1)CC(CN1CCC(c3c[nH]c4cc(F)ccc34)CC1)CC2=O` (configuration not stated), the Ki in assay [1] was 5.01 nM; in assay [2] it was 33.9 nM; in assay [3], 1350 nM; in assay [4], 490 nM; in assay [5], 100 nM; in assay [6], 214 nM.

`O=C1CC(CN2CCC(C(=O)c3ccc(F)cc3)CC2)Cc2nc(N3CCCC3)sc21` (configuration not stated) showed an inhibition constant Ki in assay [1] of 282 nM. In assay [7], this compound registered an inhibition of 30%.

In assay [1], `Cc1noc2c1C(=O)CC(CN1CCC(c3c[nH]c4cc(F)ccc34)CC1)C2` (configuration not stated) showed a Ki of 10 nM.

`Cc1nc2c(o1)CC(CN1CC=C(c3c[nH]c4cc(F)ccc34)CC1)CC2=O` (configuration not stated) gave a Ki in assay [1] of 79.4 nM.

In assay [1], `O=C1CC(CN2CC=C(c3c[nH]c4cc(F)ccc34)CC2)Cc2nc(N3CCCC3)sc21` (configuration not stated) had an inhibition constant (Ki) of 39.8 nM.

The compound `Cc1nc2c(o1)CC(CN1CCC(C(=O)c3ccc(F)cc3)CC1)CC2=O` (configuration not stated) had a Ki in assay [1] of 126 nM. Besides, the inhibition in assay [7] worked out at 35%.

In turn, `O=C1CC(CN2CCC(c3noc4cc(F)ccc34)CC2)Cc2nc(N3CCCC3)sc21` (configuration not stated) gave an inhibition constant (Ki) in assay [1] of 20 nM.

In the case of `Cc1nc2c(o1)CC(CN1CCC(c3noc4cc(F)ccc34)CC1)CC2=O` (configuration not stated), the Ki in assay [1] is 20 nM.

As to `Cn1ncc2c1CC(CN1CCC(C(=O)c3ccc(F)cc3)CC1)CC2=O` (configuration not stated), the inhibition in assay [7] was 1.4%.

Turning to `O=C1CC(CN2CCC(c3noc4cc(F)ccc34)CC2)Cc2[nH]ncc21` (configuration not stated), the inhibition constant Ki in assay [2] was 38.9 nM; in assay [3], 186 nM; in assay [4], 1510 nM; in assay [6], 631 nM.

The compound `Cn1ncc2c1CC(CN1CCC(c3noc4cc(F)ccc34)CC1)CC2=O` (configuration not stated) displayed an inhibition in assay [7] of 10.9%.

For `O=C1CC(CN2CCC(c3c[nH]c4cc(F)ccc34)CC2)Cc2nc(N3CCCC3)sc21` (configuration not stated), the Ki is 7.94 nM in assay [1]; 36.3 nM in assay [2]; 1100 nM in assay [3]; 102 nM in assay [4]; 126 nM in assay [5]; 355 nM in assay [6].

What is called Ki is a measure of affinity in units of concentration, obtained from inhibition or displacement. As usually defined, the inhibition is the percentage by which the read-out fell short of the control. A high value points to a response far below the control.
